These are literature values, as cited in patent publication US12594237B2, “Mucoadhesive gel composition” (Viramal Limited, priority 2018, dated 2026).

The conditions of the series: orally administered.

Regarding `CC(=O)[C@H]1CC[C@H]2[C@@H]3CCC4=CC(=O)CC[C@]4(C)[C@H]3CC[C@]12C` [progesterone], the half-life in serum result was “about 5 minutes”.
